From the supplement of paper PMC10307832

Tests used:
Experiment in all cases: relative viability (nuclei count vs DMSO), 5 days (fraction); higher = more cells survive
[1] = compound: C1COCCN1C2=NC(=NC3=C2OC4=C3C=CC=N4)C5=CC(=CC=C5)NC(=O)C6=CN=C(C=C6)N + Cc1cc(Nc2cc(N3CCN(C)CC3)nc(Sc3ccc(NC(=O)C4CC4)cc3)n2)n[nH]1 [Tozasertib] (partner 0.1 µM)
How it was run: (§1)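 Lung cancer cell lines were pin-tool dosed in 1536-well plates on the day after seeding, with either a lone drug or a fixed anchor-drug dose plus five library-drug doses (not always all listed) in √10 steps. Nuclei were counted on 4× images after 5 days. Relative viability is the ratio of treated-well to vehicle-well nuclei counts, with each value a median of duplicate plates.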

[2] = compound: Nc1ccccc1NC(=O)c1ccc(CNC(=O)OCc2cccnc2)cc1 [Entinostat] + CS(=O)(=O)N1CCN(Cc2cc3nc(-c4cccc5[nH]ncc45)nc(N4CCOCC4)c3s2)CC1 [Pictilisib] (partner 1 µM)
How it was run: as §1

[3] = compound: Nc1ccccc1NC(=O)c1ccc(CNC(=O)OCc2cccnc2)cc1 [Entinostat] + O=C(c1cc(Cc2n[nH]c(=O)c3ccccc23)ccc1F)N1CCN(C(=O)C2CC2)CC1 [Olaparib] (partner 8 µM)
How it was run: as §1

[4] = compound: Nc1ccccc1NC(=O)c1ccc(CNC(=O)OCc2cccnc2)cc1 [Entinostat] + CC(C)C[C@H](NC(=O)[C@H](Cc1ccccc1)NC(=O)c1cnccn1)B(O)O [Bortezomib] (partner 0.002 µM)
How it was run: as §1

Cell Line NCI-H1975 has a relative viability ([1]; first compound 0.02 µM) of 0.893, a relative viability ([1]; first compound 0.06325 µM) of 0.699 and a relative viability ([1]; first compound 0.2 µM) of 0.315. It also gave a relative viability ([1]; first compound 0.6325 µM) of 0.225, a relative viability ([1]; first compound 2 µM) of 0.215 and a relative viability ([2]; first compound 0.02 µM) of 0.206. The relative viability ([2]; first compound 0.06325 µM) was 0.245, the relative viability ([2]; first compound 0.2 µM) was 0.228 and the relative viability ([2]; first compound 0.6325 µM) was 0.151. For the same cell line, the relative viability ([2]; first compound 2 µM) was 0.139, the relative viability ([3]; first compound 0.02 µM) was 0.73 and the relative viability ([3]; first compound 0.06325 µM) was 0.637. It also gave a relative viability ([3]; first compound 0.2 µM) of 0.484, a relative viability ([3]; first compound 0.6325 µM) of 0.324 and a relative viability ([3]; first compound 2 µM) of 0.211. For the same cell line, the relative viability ([4]; first compound 0.02 µM) was 0.355, the relative viability ([4]; first compound 0.06325 µM) was 0.309 and the relative viability ([4]; first compound 0.2 µM) was 0.271. It also gave a relative viability ([4]; first compound 0.6325 µM) of 0.182 and a relative viability ([4]; first compound 2 µM) of 0.163.

Work on BEN yielded a relative viability ([1]; first compound 0.02 µM) of 0.593, a relative viability ([1]; first compound 0.06325 µM) of 0.444 and a relative viability ([1]; first compound 0.2 µM) of 0.488. The relative viability ([1]; first compound 0.6325 µM) was 0.513, the relative viability ([1]; first compound 2 µM) was 0.386 and the relative viability ([2]; first compound 0.02 µM) was 0.594. For the same cell line, the relative viability ([2]; first compound 0.06325 µM) was 0.673, the relative viability ([2]; first compound 0.2 µM) was 0.453 and the relative viability ([2]; first compound 0.6325 µM) was 0.282. The relative viability ([2]; first compound 2 µM) was 0.188, the relative viability ([3]; first compound 0.02 µM) was 1.22 and the relative viability ([3]; first compound 0.06325 µM) was 1.15. It also gave a relative viability ([3]; first compound 0.2 µM) of 1.09, a relative viability ([3]; first compound 0.6325 µM) of 0.64 and a relative viability ([3]; first compound 2 µM) of 0.371. It also gave a relative viability ([4]; first compound 0.02 µM) of 0.96, a relative viability ([4]; first compound 0.06325 µM) of 0.797 and a relative viability ([4]; first compound 0.2 µM) of 0.741. The relative viability ([4]; first compound 0.6325 µM) was 0.577 and the relative viability ([4]; first compound 2 µM) was 0.247.

NCI-H322M was tested, and the relative viability ([1]; first compound 0.02 µM) was 0.535, the relative viability ([1]; first compound 0.06325 µM) was 0.49 and the relative viability ([1]; first compound 0.2 µM) was 0.471. The relative viability ([1]; first compound 0.6325 µM) was 0.401, the relative viability ([1]; first compound 2 µM) was 0.338 and the relative viability ([2]; first compound 0.02 µM) was 0.513. The relative viability ([2]; first compound 0.06325 µM) was 0.595, the relative viability ([2]; first compound 0.2 µM) was 0.561 and the relative viability ([2]; first compound 0.6325 µM) was 0.559. The relative viability ([2]; first compound 2 µM) was 0.295, the relative viability ([3]; first compound 0.02 µM) was 0.722 and the relative viability ([3]; first compound 0.06325 µM) was 0.952. The relative viability ([3]; first compound 0.2 µM) was 0.887, the relative viability ([3]; first compound 0.6325 µM) was 0.815 and the relative viability ([3]; first compound 2 µM) was 0.618. The relative viability ([4]; first compound 0.02 µM) was 1.33, the relative viability ([4]; first compound 0.06325 µM) was 1.33 and the relative viability ([4]; first compound 0.2 µM) was 1.31. It also gave a relative viability ([4]; first compound 0.6325 µM) of 1.27 and a relative viability ([4]; first compound 2 µM) of 1.3.

Work on HOP-62 yielded a relative viability ([1]; first compound 0.02 µM) of 0.358, a relative viability ([1]; first compound 0.06325 µM) of 0.396 and a relative viability ([1]; first compound 0.2 µM) of 0.337. For the same cell line, the relative viability ([1]; first compound 0.6325 µM) was 0.312, the relative viability ([1]; first compound 2 µM) was 0.225 and the relative viability ([2]; first compound 0.02 µM) was 0.578. It also gave a relative viability ([2]; first compound 0.06325 µM) of 0.743, a relative viability ([2]; first compound 0.2 µM) of 0.603 and a relative viability ([2]; first compound 0.6325 µM) of 0.139. For the same cell line, the relative viability ([2]; first compound 2 µM) was 0.0745, the relative viability ([3]; first compound 0.02 µM) was 0.36 and the relative viability ([3]; first compound 0.06325 µM) was 0.391. The relative viability ([3]; first compound 0.2 µM) was 0.373, the relative viability ([3]; first compound 0.6325 µM) was 0.147 and the relative viability ([3]; first compound 2 µM) was 0.128. For the same cell line, the relative viability ([4]; first compound 0.02 µM) was 0.804, the relative viability ([4]; first compound 0.06325 µM) was 0.591 and the relative viability ([4]; first compound 0.2 µM) was 0.763. The relative viability ([4]; first compound 0.6325 µM) was 0.398 and the relative viability ([4]; first compound 2 µM) was 0.17.
